Legend:
[1] = test system: complex I; details: 10 μM
Protocol: (a) Effect of MitoSNAP on mitochondrial respiration. Heart mitochondria (1 mg protein/ml) were incubated in 1 ml KCl medium supplemented with 1 mM phosphate in an oxygen electrode with 5 mM glutamate and 5 mM malate, or succinate, and incubated with 10 μM MitoSNAP, 10 μM MitoNAP or carrier for 2 min (succinate) or 3 min (glutamate/malate), then 250 μM adenosine diphosphate (ADP) was added and the rate of respiration was measured. Respiration in the presence of MitoSNAP is expressed as a percentage of that with MitoNAP, and are means±sem from 3 separate mitochondrial preparations, each determined in triplicate; *p<0.05 by Student's paired t test. […] Bovine heart mitochondrial membranes (0.25 mg protein/ml) were incubated in 1 ml KCl medium in an O2 electrode at 37° C., and incubated with 75 μM MitoSNAP or MitoNAP, or ethanol carrier for 5 min in the presence or absence of rotenone, then 1 mM NADH or 10 mM succinate was added and the rate of respiration was measured. Data are expressed as respiration in the presence of MitoSNAP or MitoNAP as a percentage of the appropriate controls and are means±range of two separate experiments, each determined in triplicate. […] Then protein SNOs were labelled by maleimide-Cy3 and intact mitochondrial respiratory complexes were separated by BN-PAGE which was then scanned for Cy3 fluorescence. […]

[2] = test system: liver or heart mitochondria; test: Visualisation of S-nitrosated mitochondrial proteins by Cy3 maleimide labelling; assay type: biochemical, rat; details: 10 μM MitoSNAP or 500 μM diamide, 5 min
Protocol: FIG. 11 is a series of graphs showing S-nitrosation of mitochondrial thiols by MitoSNAP. (a) Time course of S-nitrosation of mitochondrial proteins by MitoSNAP. Liver mitochondria (1 mg protein) were incubated in 1 ml KCl buffer supplemented with rotenone and succinate in the presence of 5 μM MitoSNAP. At various times mitochondria were treated with 10 mM N-ethylmaleimide (NEM), isolated by centrifugation and the S-nitrosothiol content assessed. Data are of a typical experiment showing means±range of duplicate samples for each time point, each measured in duplicate. The experiment was repeated twice. (b) S-nitrosation of mitochondrial proteins by different concentrations of MitoSNAP and SNAP. Aliquots of liver mitochondria were incubated with the indicated concentrations of MitoSNAP or SNAP for […] in the presence or absence of 500 nM FCCP and then assessed for S-nitrosothiol content as in (a). […] Data are of a typical experiment showing means±range of duplicate samples for each time point, each measured in duplicate. […] After further incubation for 5 min at 37° C. in the dark, the medium was removed and the content of S-nitrosated proteins was measured. […] S-nitrosated thiols were then selectively tagged with Cy3 maleimide and protein (10 μg) was then separated on a 12.5% SDS PAGE gel which was stained with coomassie blue and scanned for Cy3 fluorescence. […]

[3] = test system: complex I; test: Respiration by bovine heart mitochondrial membranes on NADH or succinate; assay type: biochemical; details: 75 μM, 5 min
Protocol: (a) Effect of MitoSNAP on mitochondrial respiration.
Mitochondrial preparations and incubations.

[4] = Reaction with GSH and half-life in the cytosol; assay type: physicochemical; details: cytosol (estimated) with 5 mM GSH; physiological GSH concentration of 5 mM
Protocol: The uptake of alkylTPP molecules into mitochondria within cells is rapid, equilibrating within 5-10 min (Ross, M. F. et al. Rapid and extensive uptake and activation of hydrophobic triphenylphosphonium cations within cells. Biochem. J. 411, 633-645 (2008)), and the rate limiting step is passage across the plasma membrane with rapid subsequent uptake into mitochondria (Ross, M. F. et al. Rapid and extensive uptake and activation of hydrophobic triphenylphosphonium cations within cells. Biochem. J. 411, 633-645 (2008) and Smith, R. A., Kelso, G. F., James, A. M. & Murphy, M. P. Targeting coenzyme Q derivatives to mitochondria. Meth. Enzymol. 382, 45-67 (2004)). Consequently, once through the plasma membrane, MitoSNAP should remain in the cytosol for a very short time before uptake into mitochondria. The rate of reaction of GSH with SNAP is 5.4 M^−1.s^−1 (Hogg, N. The kinetics of S-transnitrosation-a reversible second-order reaction. Anal. Biochem. 272, 257-62 (1999)). While other pathways of MitoSNAP decay in the cytosol may also contribute, GSH is likely to be the major one and at a physiological GSH concentration of 5 mM the half-life for MitoSNAP in the cytosol should be ˜25 s, giving plenty of time for MitoSNAP uptake into mitochondria. […]

CC(=O)NC(C(=O)NCCCCC[P+](c1ccccc1)(c1ccccc1)c1ccccc1)C(C)(C)SN=O.CS(=O)(=O)[O-] (stereo not drawn) [MitoSNAP, [5-(2-acetylamino-3-methyl-3-nitrosothio-butyrylamino)-penty1]-triphenylphosphonium methanesulfonate]
inhibition of respiration relative to MitoNAP ([1]; glutamate/malate): about 30% | effect on respiration ([1]; succinate): very little effect | Cy3 labelling of S-nitrosated proteins [2]: S-nitrosation of a large number of different proteins | effect on succinate respiration [3]: unaffected | inhibition of NADH respiration [3]: about 35% | half-life [4]: ~25 s

From US9045505B2, “Nitric oxide donors” (University of Otago, priority 2006, dated 2015)
